In patent publication US20230227466A1, “SUBSTITUTED THIENOPYRIMIDINES THAT INTERACT WITH THE RAS SUPERFAMILY FOR THE TREATMENT OF CANCERS, INFLAMMATORY DISEASES, RASOPATHIES, AND FIBROTIC DISEASE” (SHY Therapeutics, LLC, priority 2020, published 2023):

Assays:
[1] = Kinetic solubility assay; format: physicochemical; conditions: phosphate-buffered saline pH 7.4 with 2% DMSO, aqueous buffer, kinetic from dmso stock; pH 7.4 PBS + 2% DMSO, 25° C., two hours; effective range approximately 2-400 μM
Procedure: Equipment: Water purification system Millipore Milli-Q Gradient A10 (Millipore, France); Thermomixer R Block, 1.5 ml (Eppendorf, Germany; Cat #5355); Matrix Multichannel Electronic Pipette 2-125 μL, 5-250 μL, 15-1250 μL (Thermo Scientific, USA; Cat ##2011, 2012, 2004); SpectraMax Plus Microplate Reader (Molecular Devices, USA; Product #02196); Multi-Well Plate Vacuum Manifold (Pall Corporation, USA; Product #5014); and Vacuum pump (Millipore, USA; Model #XX5500000)
Analytical System: The measurements were performed using SpectraMax Plus reader in UV-Vis mode. Acquisition and analysis of the data were performed using SoftMax Pro v.5.4 (Molecular Devices) and Excel 2010 data analysis software.
Methods: Briefly, using a 20 mM stock solution of the compound in 100% DMSO dilutions were prepared to a theoretical concentration of 400 μM in duplicates in phosphate-buffered saline pH 7.4 (138 mM NaCl, 2.7 mM KCl, 10 mM K-phosphate) with 2% final DMSO. The experimental compound dilutions in PBS were further allowed to equilibrate at 25° C. on a thermostatic shaker for two hours and then filtered through HTS filter plates using a vacuum manifold. The filtrates of test compounds were diluted 2-fold with acetonitrile with 2% DMSO before measuring.
In parallel, compound dilutions in acetonitrile/PBS (1:1) were prepared to theoretical concentrations of 0 μM (blank), 10 μM, 25 μM, 50 μM, 100 μM, and 200 μM with 2% final DMSO to generate calibration curves. Ondansetron was used as reference compound to control proper assay performance. 200 μL of each sample was transferred to 96-well plate and measured in 200-550 nm range with 5 nm step.
The concentrations of compounds in PBS filtrate are calculated using a dedicated Microsoft Excel calculation script. Proper absorbance wavelengths for calculations are selected for each compound manually based on absorbance maximums (absolute absorbance unit values for the minimum and maximum concentration points within 0-3 OD range). Each of the final datasets is additionally visually evaluated by the operator and goodness of fit (R2) is calculated for each calibration curve. […] This method is not suitable for liquid (at 25° C.) substances (were not present among the tested compounds). Table 3A provides the kinetic solubility for some of the exemplified compounds.

[2] = system: ERK1/2 phosphorylation in Panc-1 cells; assay: Western ERK1/2 cell-based phosphorylation assay; parameters: species or system human; conditions: at 10 μM, values in brackets < > are activation %, not inhibition
How it was run: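 Panc-1 cells starved overnight in 0.5% FBS, then exposed 6 h at 37 °C to compound at 10 μM final (0.3% DMSO) or serial dilutions for IC50. Stimulation with 1.5 ng/ml EGF for 15 min; phospho-ERK1/2 (Thr202/Tyr204) read by western blot on equal protein loads.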

[3] = system: Akt phosphorylation in Panc-1 cells; assay: Western AKT cell-based phosphorylation assay; parameters: species or system human; conditions: at 10 μM, values in brackets < > are activation %, not inhibition
How it was run: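 Panc-1 cells starved overnight in 0.5% FBS, exposed to compound at 10 μM (0.3% DMSO) for 6 h at 37° C, then stimulated with 1.5 ng/ml EGF for 15 min. Lysates probed by western blot with anti-phospho-Akt (Ser473), equal protein loading checked by Ponceau S.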

solubility kinetic at 2 h [1]	Structure (SMILES)	% inh of ERK1/2 phosphorylation in PANC-1 [2]	% inh of AKT phosphorylation in PANC-1 [3]
> 400 µM	COCC1CCN(c2nc(-c3nccn3C)nc3sc(-c4ccn(C(C)C)n4)c(C)c23)C1 (racemic) [Compound 38, rac-6-(1-Isopropyl-1H-pyrazol-3-yl)-4-(3-(methoxymethyl)pyrrolidin-1-yl)-5-methyl-2-(1-methyl-1H-imidazol-2-yl)thieno[2,3-d]pyrimidine]	D (76-100% inhibition)	B (26-50% inhibition)
268 µM	COCCCNc1nc(-c2nccn2C)nc2sc(-c3ccn(C(C)C)n3)c(C)c12 [Compound 36, 6-(1-Isopropyl-1H-pyrazol-3-yl)-N-(3-methoxypropyl)-5-methyl-2-(1-methyl-1H-imidazol-2-yl)thieno[2,3-d]pyrimidin-4-amine]	C (51-75% inhibition)	0 (0% inhibition)
76 µM	CO[C@H]1CC(Nc2nc(-c3nccn3C)nc3sc(-c4ccn(C(C)C)n4)c(C)c23)C[C@@H]1OC (racemic) [Compound 44, rac-N-((3S,4S)-3,4-Dimethoxycyclopentyl)-6-(1-isopropyl-1H-pyrazol-3-yl)-5-methyl-2-(1-methyl-1H-imidazol-2-yl)thieno[2,3-d]pyrimidin-4-amine]	D (76-100% inhibition)	<A>
5 µM	CO[C@@H]1CC[C@H](Nc2nc(-c3nccn3C)nc3sc(-c4ccn(C(C)C)n4)c(-c4ccccc4)c23)C1 [Example 4, 6-(1-isopropyl-1H-pyrazol-3-yl)-N-((1S,3R)-3-methoxycyclopentyl)-2-(1-methyl-1H-imidazol-2-yl)-5-phenylthieno[2,3-d]pyrimidin-4-amine]	D (76-100% inhibition)	D (76-100% inhibition)
49 µM	CO[C@@H]1CC[C@@H](Nc2nc(-c3nccn3C)nc3sc(-c4ccn(C(C)C)n4)c(C)c23)C1 (racemic) [Compound 33, rac-6-(1-Isopropyl-1H-pyrazol-3-yl)-N-((1R,3R)-3-methoxycyclopentyl)-5-methyl-2-(1-methyl-1H-imidazol-2-yl)thieno[2,3-d]pyrimidin-4-amine]	D (76-100% inhibition)	0 (0% inhibition)
18 µM	COC[C@@H]1CC[C@@H]1CNc1nc(-c2nccn2C)nc2sc(-c3ccn(C(C)C)n3)c(C)c12 (racemic) [Compound 63, rac-6-(1-Isopropyl-1H-pyrazol-3-y)-N-(((1S,2R)-2-(methoxymethyl)cyclobutyl)methyl)-5-methyl-2-(1-methyl-1H-imidazol-2-yl)thieno[2,3-d]pyrimidin-4-amine]	D (76-100% inhibition)	C (51-75% inhibition)
> 400 µM	COC1CCN(c2nc(-c3nccn3C)nc3sc(-c4ccn(C(C)C)n4)c(C)c23)C1 (racemic) [Compound 34, rac-6-(1-Isopropyl-1H-pyrazol-3-yl)-4-(3-methoxypyrrolidin-1-yl)-5-methyl-2-(1-methyl-1H-imidazol-2-yl)thieno[2,3-d]pyrimidine]	D (76-100% inhibition)	0 (0% inhibition)
	COc1cccn2c(-c3nc(O)c4scc(-c5ccccn5)c4n3)ncc12 [Compound 84, 2-(8-Methoxyimidazo[1,5-a]pyridin-3-yl)-7-(pyridin-2-yl)thieno[3,2-d]pyrimidin-4-ol]	0 (0% inhibition)	A (1-25% inhibition)
	CO[C@H]1CC[C@@H](Nc2nc(C(=O)NC(C)C)nc3sccc23)C1 (racemic) [Compound 13, Rac-N-isopropyl-4-(((1R,3S)-3-methoxycyclopentyl)amino)thieno[2,3-d]pyrimidine-2-carboxamide]	0 (0% inhibition)	0 (0% inhibition)
	COCCn1cnc(-c2nc(O)c3scc(-c4ccccn4)c3n2)c1 [Compound 78, 2-(1-(2-Methoxyethyl)-1H-imidazol-4-yl)-7-(pyridin-2-yl)thieno[3,2-d]pyrimidin-4-ol]	0 (0% inhibition)	0 (0% inhibition)
	CO[C@H]1CC[C@@H](Nc2nc(-c3nccn3C)nc3sccc23)C1 (racemic) [Compound 10, Rac-N-((1R,3S)-3-methoxycyclopentyl)-2-(1-methyl-1H-imidazol-2-yl)thieno[2,3-d]pyrimidin-4-amine]	A (1-25% inhibition)	0 (0% inhibition)
	CO[C@@H]1CC[C@H]1CNc1nc(-c2nccn2C)nc2sc(-c3ccn(C(C)C)n3)c(C)c12 (racemic) [Compound 61, rac-6-(1-Isopropyl-1H-pyrazol-3-yl)-N-(((1S,2R)-2-methoxycyclobutyl)methyl)-5-methyl-2-(1-methyl-1H-imidazol-2-yl)thieno[2,3-d]pyrimidin-4-amine]	D (76-100% inhibition)	0 (0% inhibition)
	COC1CCCN(c2nc(-c3nccn3C)nc3sc(-c4ccn(C(C)C)n4)c(-c4ccccc4)c23)C1 (racemic) [Compound 77, Rac-6-(1-isopropyl-1H-pyrazol-3-yl)-4-(3-methoxypiperidin-1-yl)-2-(1-methyl-1H-imidazol-2-yl)-5-phenylthieno[2,3-d]pyrimidine]	B (26-50% inhibition)	<A>
	COCCn1ccnc1-c1nc(N[C@H]2C[C@@H](OC)C2)c2c(-c3ccccc3)c(-c3ccn(C)n3)sc2n1 [Compound 7, N-((1s,3s)-3-Methoxycyclobutyl)-2-(1-(2-methoxyethyl)-1H-imidazol-2-yl)-6-(1-methyl-1H-pyrazol-3-yl)-5-phenylthieno[2,3-d]pyrimidin-4-amine]	D (76-100% inhibition)	0 (0% inhibition)
	COCCNc1nc(-c2nccn2C)nc2sc(-c3ccn(C(C)C)n3)c(C)c12 [Compound 35, 6-(1-Isopropyl-1H-pyrazol-3-yl)-N-(2-methoxyethyl)-5-methyl-2-(1-methyl-1H-imidazol-2-yl)thieno[2,3-d]pyrimidin-4-amine]	0 (0% inhibition)	0 (0% inhibition)
	CO[C@H]1CC[C@@H](Nc2nc(-c3nccn3C)nc3sc(-c4ccn(C(C)C)n4)c(C(F)(F)F)c23)C1 (racemic) [Compound 73, Rac-6-(1-isopropyl-1H-pyrazol-3-yl)-N-((1R,3S)-3-methoxycyclopentyl)-2-(1-methyl-1H-imidazol-2-yl)-5-(trifluoromethyl)thieno[2,3-d]pyrimidin-4-amine]	D (76-100% inhibition)	A (1-25% inhibition)
	CO[C@H]1C[C@@H](Nc2nc(-c3nccn3C)nc3sc(-c4ccn(C(C)C)n4)c(C)c23)C[C@H]1OC [Compound 42, N-((1r,3R,4S)-3,4-Dimethoxycyclopentyl)-6-(1-isopropyl-1H-pyrazol-3-yl)-5-methyl-2-(1-methyl-1H-imidazol-2-yl)thieno[2,3-d]pyrimidin-4-amine]	B (26-50% inhibition)	<D>
	COCC1CCN(c2nc(-c3ccccn3)nc3sc(-c4ccn(C(C)C)n4)c(C)c23)C1 (racemic) [Compound 71, Rac-6-(1-Isopropyl-1H-pyrazol-3-yl)-4-(3-(methoxymethyl)pyrrolidin-1-yl)-5-methyl-2-(pyridin-2-yl)thieno[2,3-d]pyrimidine]	D (76-100% inhibition)	D (76-100% inhibition)
